From patent publication US20080312292A1, “Antipruritics” (priority 2002, published 2008)
Like-named read-outs stand apart in the source and are kept apart here. Marks after values point to notes of the source that are not given here.

Tests used:
[1] = biological target: T1, Human cannabinoid receptor CB2R (Homo sapiens, UniProt P34972); assay: Human cannabinoid receptor binding inhibition, [3H]CP55940, CB2R; conditions: membranes of CB2R-expressing CHO cells, [3H]CP55940 0.5 nM; read-out: Ki CB2 receptor
T1 construct: expressed in transfected cells; host or cells: CHO cells
T1 sequence (P34972 whole entry): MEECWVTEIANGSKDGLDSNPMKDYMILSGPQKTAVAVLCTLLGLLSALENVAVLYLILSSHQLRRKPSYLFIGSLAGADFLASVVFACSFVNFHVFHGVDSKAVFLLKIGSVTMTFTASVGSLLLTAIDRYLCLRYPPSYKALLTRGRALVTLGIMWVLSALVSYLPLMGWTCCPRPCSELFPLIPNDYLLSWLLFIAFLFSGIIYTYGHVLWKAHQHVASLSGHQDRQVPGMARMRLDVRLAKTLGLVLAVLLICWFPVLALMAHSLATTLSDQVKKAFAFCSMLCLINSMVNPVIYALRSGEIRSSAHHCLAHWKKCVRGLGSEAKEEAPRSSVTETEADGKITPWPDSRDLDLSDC
Method: (§1) The crude membrane fractions as Human cannabinoid receptor were then prepared from the CB1R or CB2R-expressing CHO cells. Receptor binding assay was performed by incubating the membranes with each test compound and 38,000 dpm [^3H]CP55940 (at a final concentration of 0.5 nM: NEN Life Science Products) in the assay buffer (50 mM Tris-HCl; 1 mM EDTA, 3 mM MgCl2, pH 7.4) containing 0.5% bovine serum albumin (BSA) for 2 hr at 25° C. The incubation mixture was filtered through 1% polyethylenimine (PEI)-treated GF/C glass filter and washed with 50 mM Tris-HCl (pH 7.4) containing 0.1% BSA. The radioactivity was then counted with a liquid scintillation counter. […] Ki value of test compound is calculated by obtained IC50 value and Kd value of [^3H]CP55940.

human CB2R = biological target: T2, human CB2R (Homo sapiens, UniProt P34972); assay: Cannabinoid receptor-mediated suppression of forskolin-stimulated cAMP synthesis, CB2R; format: cell-based
T2 construct: expressed in transfected cells; host or cells: CHO cells
T2 sequence (P34972 whole entry): as above

human CB1R = biological target: T3, human CB1R (Homo sapiens, UniProt P21554); assay: cell-based; conditions: CHO cells expressing human CB1R
T3 construct: expressed in transfected cells; host or cells: CHO cells
T3 sequence (P21554 whole entry): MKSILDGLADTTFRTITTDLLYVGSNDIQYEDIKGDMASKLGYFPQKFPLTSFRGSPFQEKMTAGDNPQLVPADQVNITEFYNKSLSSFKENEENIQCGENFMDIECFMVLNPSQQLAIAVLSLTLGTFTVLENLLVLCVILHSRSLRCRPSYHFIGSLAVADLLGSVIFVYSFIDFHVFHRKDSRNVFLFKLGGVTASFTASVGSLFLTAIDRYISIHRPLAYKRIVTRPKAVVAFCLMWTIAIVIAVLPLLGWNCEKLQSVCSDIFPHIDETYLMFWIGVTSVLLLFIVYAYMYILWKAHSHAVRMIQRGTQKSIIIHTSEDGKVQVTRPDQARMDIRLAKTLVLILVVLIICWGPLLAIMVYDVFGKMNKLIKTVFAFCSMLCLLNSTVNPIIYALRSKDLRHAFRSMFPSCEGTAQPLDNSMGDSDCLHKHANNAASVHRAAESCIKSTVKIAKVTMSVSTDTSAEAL

mouse CB1 receptor = biological target: T4, mouse CB1 receptor (Mus musculus, UniProt P47746); assay: Binding inhibitory activity to mouse cannabinoid receptors, brain membrane fraction; design: species or system C57BL/6 J mice
T4 construct: The membrane fractions of mouse brain and spleen that abundantly express CB1 and CB2 receptor, respectively; from tissue; host or cells: mouse brain membrane fraction (C57BL/6 J)
T4 sequence (P47746 whole entry): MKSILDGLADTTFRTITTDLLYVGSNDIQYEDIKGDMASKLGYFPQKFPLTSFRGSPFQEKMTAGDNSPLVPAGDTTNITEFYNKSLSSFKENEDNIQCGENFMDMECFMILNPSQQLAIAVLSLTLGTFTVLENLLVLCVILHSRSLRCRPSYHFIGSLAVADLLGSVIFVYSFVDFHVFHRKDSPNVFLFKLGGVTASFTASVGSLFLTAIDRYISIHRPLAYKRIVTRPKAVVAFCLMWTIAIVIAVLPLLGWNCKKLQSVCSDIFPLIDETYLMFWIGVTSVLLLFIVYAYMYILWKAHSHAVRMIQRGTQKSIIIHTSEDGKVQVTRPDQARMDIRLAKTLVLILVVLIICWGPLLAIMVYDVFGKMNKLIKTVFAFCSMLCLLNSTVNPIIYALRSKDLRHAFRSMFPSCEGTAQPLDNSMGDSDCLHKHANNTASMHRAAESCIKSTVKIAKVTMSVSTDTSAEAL

mouse CB2 receptor = biological target: T5, mouse CB2 receptor (Mus musculus, UniProt P47936); assay: Binding inhibitory activity to mouse cannabinoid receptors, spleen membrane fraction; design: species or system C57BL/6 J mice
T5 construct: The membrane fractions of mouse brain and spleen that abundantly express CB1 and CB2 receptor, respectively; from tissue; host or cells: mouse spleen membrane fraction (C57BL/6 J)
T5 sequence (P47936 whole entry): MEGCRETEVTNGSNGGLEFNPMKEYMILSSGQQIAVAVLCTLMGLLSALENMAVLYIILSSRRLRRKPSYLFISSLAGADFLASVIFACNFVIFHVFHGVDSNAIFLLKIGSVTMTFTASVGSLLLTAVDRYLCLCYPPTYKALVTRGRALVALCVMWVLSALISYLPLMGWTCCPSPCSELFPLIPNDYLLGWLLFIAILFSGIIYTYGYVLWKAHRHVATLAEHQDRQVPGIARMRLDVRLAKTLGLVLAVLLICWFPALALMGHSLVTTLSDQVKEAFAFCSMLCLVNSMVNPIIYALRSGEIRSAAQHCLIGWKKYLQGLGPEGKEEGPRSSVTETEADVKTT

[2] = test system: compound 48/80-induced pruritus; assay: Inhibitory effect on compound 48/80-induced pruritus in ICR strain mice; conditions: 100 mg/kg (p.o.), ICR mice, compound 48/80-induced scratching
[3] = biological target: T6, Human cannabinoid receptor CB1R (Homo sapiens, UniProt P21554); assay: Human cannabinoid receptor binding inhibition, [3H]CP55940, CB1R; conditions: membranes of CB1R-expressing CHO cells, [3H]CP55940 0.5 nM; read-out: Ki CB1 receptor
T6 construct: expressed in transfected cells; host or cells: CHO cells
T6 sequence (P21554 whole entry): as the sequence (P21554 whole entry) above
Method: as §1

[4] = CHO cells expressing human CB2R, forskolin-stimulated cAMP synthesis, read-out: CB2 receptor IC50
[5] = read-out: cAMP Inhibition: IC50 CB1
[6] = CHO cells expressing human CB2R, read-out: cAMP Inhibition: IC50 CB2
[7] = forskolin-stimulated cAMP synthesis, read-out: CB1 receptor IC50

CCCCn1c(C)c(C)cc(NC(=O)c2ccccc2C)c1=O [Compound 5-006]
Ki [1]: 14 nM

CSC(=S)N1CC(C)(C)CSC1=Nc1ccc(C)c(C)c1 [Compound I-74]
IC50 (human CB2R; [4]): 1.6 nM | melting point: 126 to 128 °C

CCSC(=S)N1CC(C)(C)CSC1=Nc1ccccc1C(C)C [Compound I-84]
melting point: 68 to 70 °C

CSC(=S)N1CC2(CCCCC2)CSC1=Nc1ccccc1C(C)C [Compound I-270]
IC50 (human CB1R; [5]): 68.7 nM | IC50 (human CB2R; [6]): 7.9 nM | Ki (mouse CB1 receptor; mouse brain membrane fraction, read-out: Binding Assay: Ki Brain (CB1)): 80 nM | Ki (mouse CB2 receptor; mouse spleen membrane fraction, read-out: Binding Assay: Ki Spleen (CB2)): 1.2 nM | Antipruritic Effect (%) [2]: 98** %

CCCCn1c(C)c(C)cc(C(=O)NC(C)(C)c2ccccc2)c1=O [Compound 11-001]
IC50 (human CB1R; [7]): 1.2 nM

CCCCn1c2c(cc(C(=O)NCCc3ccc(N)cc3)c1=O)CCCCCC2 [Compound 4-104]
Ki [3]: 54 nM | Ki [1]: 6 nM | IC50 (human CB2R): 9.8 nM

CCCCn1c2c(cc(C(=O)NCc3ccccc3)c1=O)CCCC2 [Compound 4-001]
Ki [3]: 2850 nM | Ki [1]: 28 nM | IC50 (human CB2R): 64.2 nM

CCNC(=O)N1CC(C)(C)CSC1=Nc1ccccc1C(C)C [Compound I-92]
IC50 (human CB2R; [4]): < 0.2 nM | melting point: 52 to 53 °C

CCCCn1c(C)c(C)cc(NC(=O)OCc2ccccc2)c1=O
melting point: 65 to 66 °C

CSC(=S)N1CC(C)(C)CSC1=Nc1ccccc1SC [Compound I-62]
melting point: 137 to 139 °C

C=CCSC(=S)N1CC2(CCCCC2)CSC1=Nc1ccccc1OC [II-86]
IC50 (human CB1R; [5]): 16.8 nM | IC50 (human CB2R; [6]): 1 nM | Ki (mouse CB1 receptor): 12 nM | Ki (mouse CB2 receptor): 1.1 nM | melting point: 108.5 to 109.5 °C | Antipruritic Effect (%) [2]: 98** %

CCCCn1c(C)c(C)cc(NC(=O)Nc2ccccc2Br)c1=O
melting point: 154 to 155 °C

CCC(C)c1ccccc1N=C1SCC(C)(C)CN1C(=O)SC (centres unmarked) [Compound I-51]
melting point: 53 to 56 °C

CCCCn1c(C)c(C)cc(Oc2nc3ccccc3o2)c1=S [Compound 2-004, 1-butyl-5,6-dimethyl-3-O-(benzoxazol-2-yl)-2-thiopyridone]
Ki [1]: 101 nM

CCSC(=O)N1CCSC1=Nc1ccccc1C(C)C [Compound I-6]
Ki [3]: > 5000 nM

COc1c(Oc2nc3ccccc3o2)c(C)c(C)n(Cc2ccccc2)c1=O
melting point: 197 to 198 °C

CCSC(=O)N1CC(C)(C)CSC1=Nc1ccc([N+](=O)[O-])cc1C(C)C [Compound I-46]
IC50 (human CB2R; [4]): 5.4 nM | melting point: 119 to 120 °C

CCCCn1c2c(cc(C(=O)N[C@H](CC)c3ccccc3)c1=O)CCCCCC2 [Compound 10-058]
IC50 (human CB1R; [7]): 2.4 nM

CCCCn1c2c(cc(C(=O)N[C@@H](CC)c3ccccc3)c1=O)CCCCCC2 [Compound 10-059]
IC50 (human CB1R; [7]): 6.1 nM

CCCCn1c2c(cc(C(=O)NCCc3ccc(O)cc3)c1=O)CCCCCC2 [Compound 4-105]
Ki [3]: 91 nM | Ki [1]: 2.1 nM

COCCn1c2c(cc(C(=O)NCc3ccccc3)c1=O)CCCCCC2 [Compound 4-301]
Ki [3]: 1770 nM | Ki [1]: 8 nM

CCCCn1c(C)c(C)cc(C(=O)NCCc2ccccc2)c1=O [Compound 3-010]
Ki [1]: 57 nM

C=CCSC(=S)N1CC2(CCOCC2)CSC1=Nc1ccccc1C(C)C [II-92]
melting point: 73.5 to 75 °C

CCCCn1c2c(cc(C(=O)NCC(C)(C)C)c1=O)CCCCCC2 [Compound 10-041]
IC50 (human CB1R; [7]): 3.5 nM

CCCc1ccccc1N=C1SCC(C)(C)CN1C(=O)SC [Compound I-49]
IC50 (human CB2R; [4]): 2.2 nM | melting point: 64 to 66 °C

CSC(=S)N1CC2(CCOCC2)CSC1=Nc1ccccc1C(C)C [II-93]
melting point: 127 to 128 °C

CCCCn1c(C)c(I)cc(C(=O)NCCc2ccccc2)c1=O [Compound 3-038]
Ki [3]: 1250 nM | Ki [1]: 12 nM | IC50 (human CB2R): 28.6 nM

CCCCn1c(-c2ccccc2)c(C)cc(C(=O)NC(C)(C)c2ccccc2)c1=O [Compound 13-030]
IC50 (human CB1R; [7]): 0.7 nM

CCCCn1c(C)c(C)cc(NC(=O)c2ccccc2Cl)c1=O [Compound 5-005]
Ki [1]: 16 nM
